What follows are compounds tested on S. mansoni schistosomulae (assay: Phenotypic primary screen assay on schistosomulae (phenotype; viability by methylene blue dye exclusion)). Details: three-day-old schistosomulae, 10 μM, 24 h; estimated 5 days post compound exposure.
Assay type: cell-based, Schistosoma mansoni
Outline: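 Parasites lacking contraction/relaxation cycles and showing dark internal granulations counted as dead. Movement and body shape were compared with DMSO-treated controls under a stereo microscope at 24 h and at five days of exposure. Larvae came from infected snails shed under light for 2 h at 32 °C.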

| SMILES | Phenotype |
| --- | --- |
| Cc1ccc(C(=O)N(CCCN)[C@@H](c2nc3cc(Cl)ccc3c(=O)n2Cc2ccccc2)C(C)C)cc1 [Ispinesib] | big, granulated |
| Cc1cc(Nc2ncc(Cl)c(Nc3ccccc3S(=O)(=O)C(C)C)n2)c(OC(C)C)cc1C1CCNCC1 [LDK378] | dark, granulated |
| C[C@@H](NCCCc1cccc(C(F)(F)F)c1)c1cccc2ccccc12 [AMG-073] | big, granulated, blebbing |

Each compound was assayed on S. mansoni adult worms (assay: Motility assay on adult parasites (pixel displacement, relative to DMSO control)). Details: adults, 10 μM, long-term after washout.
Assay type: cell-based, Schistosoma mansoni
Outline: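 Unpaired adult worms from mice 6 weeks post-infection kept in OPTI-MEM with 5% dialyzed FBS and exposed to compounds at 1 and 10 μM for 24 h. Motility filmed 1 min at 10 frames/s, quantified by pixel displacement versus DMSO-treated worms; recovery followed up to five days after washout.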

| motility phenotype in words | SMILES |
| --- | --- |
| Significant hypomotility | Cc1cc(Nc2ncc(Cl)c(Nc3ccccc3S(=O)(=O)C(C)C)n2)c(OC(C)C)cc1C1CCNCC1 [LDK378] |

Same assay, conditions: secondary screen, 10 μM, D1, Female adult worms

| SMILES | Fractional motility |
| --- | --- |
| Cc1ccc(C(=O)N(CCCN)[C@@H](c2nc3cc(Cl)ccc3c(=O)n2Cc2ccccc2)C(C)C)cc1 [Ispinesib] | 3.19 |
| Cc1cc(Nc2ncc(Cl)c(Nc3ccccc3S(=O)(=O)C(C)C)n2)c(OC(C)C)cc1C1CCNCC1 [LDK378] | -0.38 |
| C[C@@H](NCCCc1cccc(C(F)(F)F)c1)c1cccc2ccccc12 [AMG-073] | 0.11 |

Same assay, conditions: secondary screen, 10 μM, D1, Male adult worms

| SMILES | Fractional motility |
| --- | --- |
| Cc1ccc(C(=O)N(CCCN)[C@@H](c2nc3cc(Cl)ccc3c(=O)n2Cc2ccccc2)C(C)C)cc1 [Ispinesib] | 2.22 |
| Cc1cc(Nc2ncc(Cl)c(Nc3ccccc3S(=O)(=O)C(C)C)n2)c(OC(C)C)cc1C1CCNCC1 [LDK378] | -0.0381 |
| C[C@@H](NCCCc1cccc(C(F)(F)F)c1)c1cccc2ccccc12 [AMG-073] | -0.24 |

Same assay, conditions: secondary screen, 10 μM, D5, Female adult worms

| SMILES | Fractional motility |
| --- | --- |
| Cc1ccc(C(=O)N(CCCN)[C@@H](c2nc3cc(Cl)ccc3c(=O)n2Cc2ccccc2)C(C)C)cc1 [Ispinesib] | -0.34 |
| Cc1cc(Nc2ncc(Cl)c(Nc3ccccc3S(=O)(=O)C(C)C)n2)c(OC(C)C)cc1C1CCNCC1 [LDK378] | -0.63 |
| C[C@@H](NCCCc1cccc(C(F)(F)F)c1)c1cccc2ccccc12 [AMG-073] | -0.43 |

Same assay, conditions: secondary screen, 10 μM, D5, Male adult worms

| SMILES | Fractional motility |
| --- | --- |
| Cc1ccc(C(=O)N(CCCN)[C@@H](c2nc3cc(Cl)ccc3c(=O)n2Cc2ccccc2)C(C)C)cc1 [Ispinesib] | -0.33 |
| Cc1cc(Nc2ncc(Cl)c(Nc3ccccc3S(=O)(=O)C(C)C)n2)c(OC(C)C)cc1C1CCNCC1 [LDK378] | -0.31 |
| C[C@@H](NCCCc1cccc(C(F)(F)F)c1)c1cccc2ccccc12 [AMG-073] | -0.27 |

What follows are compounds tested on S. mansoni schistosomulae (assay: Phenotypic primary screen assay on schistosomulae (phenotype; viability by methylene blue dye exclusion)). Details: Schistosoma mansoni; three-day-old schistosomulae, 10 μM, 24 h; calculated 5 days post compound exposure; read-out: Viability (%).
Assay type: cell-based

| SMILES | viability at 10 µM [%] |
| --- | --- |
| Cc1ccc(C(=O)N(CCCN)[C@@H](c2nc3cc(Cl)ccc3c(=O)n2Cc2ccccc2)C(C)C)cc1 [Ispinesib] | 96 |
| Cc1cc(Nc2ncc(Cl)c(Nc3ccccc3S(=O)(=O)C(C)C)n2)c(OC(C)C)cc1C1CCNCC1 [LDK378] | 0 |
| C[C@@H](NCCCc1cccc(C(F)(F)F)c1)c1cccc2ccccc12 [AMG-073] | 55 |

These compounds were tested on S. mansoni schistosomulae (assay: Motility assay on schistosomulae (pixel displacement, relative to DMSO control)). Details: Schistosoma mansoni, 120 h; schistosomulae, secondary screen, 24h exposure, read at D5, 1 µM; read-out: Fractional motility.
Assay type: cell-based, Schistosoma mansoni
Outline: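 Mechanically transformed S. mansoni schistosomulae (200/well) in Opti-MEM with 5% dialyzed FBS were exposed to compounds at 1 and 10 μM for 24 h at 37 °C, 5% CO2. Motility filmed at 10 frames/s for 1 min and quantified by pixel displacement relative to DMSO-treated controls.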

| SMILES | activity at 1 µM [%] |
| --- | --- |
| Cc1ccc(C(=O)N(CCCN)[C@@H](c2nc3cc(Cl)ccc3c(=O)n2Cc2ccccc2)C(C)C)cc1 [Ispinesib] | 125 |
| Cc1cc(Nc2ncc(Cl)c(Nc3ccccc3S(=O)(=O)C(C)C)n2)c(OC(C)C)cc1C1CCNCC1 [LDK378] | 120 |
| C[C@@H](NCCCc1cccc(C(F)(F)F)c1)c1cccc2ccccc12 [AMG-073] | -32 |

Same assay, conditions: Schistosoma mansoni; schistosomulae, secondary screen, 24h exposure, read at D1, 1 µM; read-out: Fractional motility

| SMILES | activity at 1 µM [%] |
| --- | --- |
| Cc1ccc(C(=O)N(CCCN)[C@@H](c2nc3cc(Cl)ccc3c(=O)n2Cc2ccccc2)C(C)C)cc1 [Ispinesib] | 24 |
| Cc1cc(Nc2ncc(Cl)c(Nc3ccccc3S(=O)(=O)C(C)C)n2)c(OC(C)C)cc1C1CCNCC1 [LDK378] | 7 |
| C[C@@H](NCCCc1cccc(C(F)(F)F)c1)c1cccc2ccccc12 [AMG-073] | -28 |

Same assay, conditions: schistosomulae, 1h exposure, read at D1, 10 µM

| SMILES | Fractional motility |
| --- | --- |
| C[C@@H](NCCCc1cccc(C(F)(F)F)c1)c1cccc2ccccc12 [AMG-073] | 7.02 |

Same assay, conditions: schistosomulae, 1h exposure, read at D5, 10 µM

| SMILES | Fractional motility |
| --- | --- |
| C[C@@H](NCCCc1cccc(C(F)(F)F)c1)c1cccc2ccccc12 [AMG-073] | 0.35 |

Same assay, conditions: schistosomulae, 3h exposure, read at D1, 10 µM

| SMILES | Fractional motility |
| --- | --- |
| C[C@@H](NCCCc1cccc(C(F)(F)F)c1)c1cccc2ccccc12 [AMG-073] | 12.64 |

Same assay, conditions: schistosomulae, 3h exposure, read at D5, 10 µM

| SMILES | Fractional motility |
| --- | --- |
| C[C@@H](NCCCc1cccc(C(F)(F)F)c1)c1cccc2ccccc12 [AMG-073] | 0.72 |

Same assay, conditions: schistosomulae, 6h exposure, read at D1, 10 µM

| SMILES | Fractional motility |
| --- | --- |
| C[C@@H](NCCCc1cccc(C(F)(F)F)c1)c1cccc2ccccc12 [AMG-073] | 6.39 |

Same assay, conditions: schistosomulae, secondary screen, 24h exposure, read at D1, 10 µM

| SMILES | Fractional motility |
| --- | --- |
| Cc1ccc(C(=O)N(CCCN)[C@@H](c2nc3cc(Cl)ccc3c(=O)n2Cc2ccccc2)C(C)C)cc1 [Ispinesib] | -0.92 |
| Cc1cc(Nc2ncc(Cl)c(Nc3ccccc3S(=O)(=O)C(C)C)n2)c(OC(C)C)cc1C1CCNCC1 [LDK378] | -0.83 |
| C[C@@H](NCCCc1cccc(C(F)(F)F)c1)c1cccc2ccccc12 [AMG-073] | -0.83 |

Same assay, conditions: schistosomulae, secondary screen, 24h exposure, read at D5, 10 µM

| SMILES | Fractional motility |
| --- | --- |
| Cc1ccc(C(=O)N(CCCN)[C@@H](c2nc3cc(Cl)ccc3c(=O)n2Cc2ccccc2)C(C)C)cc1 [Ispinesib] | -0.39 |
| Cc1cc(Nc2ncc(Cl)c(Nc3ccccc3S(=O)(=O)C(C)C)n2)c(OC(C)C)cc1C1CCNCC1 [LDK378] | -0.96 |
| C[C@@H](NCCCc1cccc(C(F)(F)F)c1)c1cccc2ccccc12 [AMG-073] | -1.00 |

Same assay, conditions: three-day old schistosomulae, incubation 1 h, 3 h, 6 h

| SMILES | motility in extended assay with reduced incubation times, in words |
| --- | --- |
| C[C@@H](NCCCc1cccc(C(F)(F)F)c1)c1cccc2ccccc12 [AMG-073] | did not exhibit a significant change before the 24 hr incubation cut-off |
